Laboratory results from patent US20090307791A1, “CALCIUM-ACTIVATED CHLORIDE CHANNEL AND METHODS OF USE THEREOF” (priority 2008, published 2009).

Experiments:
[1] = test system: CaCC; test: Ca2+ evoked current in A23187 treated Xenopus oocytes; type: cell-based; settings: Ca2+ 5 mM
Description: (§1) For experiments involving TMEM16 constructs, capped cRNA was in vitro transcribed from linearized plasmids using the mMessage mMachine kit (Ambion). Female Axolotls and Xenopus laevis were purchased from the Ambystoma Genetic Stock Center and Nasco respectively. Oocytes from these animals were defoliculated by treatment with collagenase prepared as described. Usually 5 ng of cRNA (50 ng for mRNA) was injected into defolliculated oocytes. Oocytes were kept at 17° C. in ND96 solution (96 mM NaCl, 2 mM KCl, 1.8 mM CaCl2, 1 mM MgCl2, 10 mM HEPES [pH 7.4]). Two-electrode voltage-clamp measurements were performed at room temperature 2-4 days after injection using a GeneClamp500 amplifier (Axon Instruments) and pClamp 8.0 software (Axon Instruments). Oocytes used in photolysis experiments were injected with […] of 100 μM caged inositol trisphosphate [myo-inositol 1,4,5-trisphosphate, P4(5)-1-(2-nitrophenyl)ethyl ester] (Molecular Probes) at least 1 h before recording, and kept in dark until usage. For flash photolysis light derived from a mercury arc lamp was guided by a fused silica fiber (Oriel) to the top of oocytes in the recording chamber. Flash time was controlled via electronic shutter.
FIGS. 2A-f. Carbachol and Ca^2+ evoked current responses in different oocytes. […]

[2] = test system: endogenous CaCCs; test: NFA inhibition of IP3-induced Ca2+ activated Cl- currents, two electrode voltage clamp, Xenopus oocytes; type: cell-based, Xenopus laevis
Description: as §1
Currents were usually recorded in Ca^2+ free ND96 solution (96 mM NaCl, 2 mM KCl, 3 mM MgCl2, 10 mM HEPES [pH 7.4]). Solutions for Cl^−/gluconate replacement experiments were prepared from appropriate mixtures of solutions containing high Cl^− (95 mM NaCl, 1 mM KCl, 2 mM MgCl2, 10 mM HEPES [pH 7.4]) and solutions containing high gluconate (95 mM NaGluconate, 1 mM KCl, 2 mM MgCl2, 10 mM HEPES [pH 7.4]). In other permeability experiments solutions containing 90 NaX, 2 KCl, 4 MgCl, 10 mM HEPES [pH 7.4] with X=Cl^−, Br^−, I^− or SCN^− were used. […] The permeability ratios were calculated from shifts in reversal potential ΔErev using the Goldman-Hodgkin-Katz Equation in the form: PX/PCl=(γ·[Cl^−](1)−[Cl^−](2))/[X^−](2) were [Cl^−](1), [Cl^−](2) and [X^−](2) are the external Cl^− and X^− concentration before and after solution exchange. […]

[3] = test system: xTMEM16A; test: NFA inhibition of IP3-induced CaCC currents, two electrode voltage clamp, Axolotl oocytes injected with xTMEM16A cRNA; type: cell-based; settings: Axolotl oocytes expressing xTMEM16A, 30 μM NFA, long lasting current
Description: as §1, with “(Molecular Probes) at least 1 h before recording, and kept in dark until usage. For flash photolysis light derived from a mercury arc lamp was guided by a fused silica fiber (Oriel) to the top of oocytes in the recording chamber. Flash time was controlled via electronic shutter.” left out
Currents were usually recorded in Ca^2+ free ND96 solution (96 mM NaCl, 2 mM KCl, 3 mM MgCl2, 10 mM HEPES [pH 7.4]). […] The permeability ratios were calculated from shifts in reversal potential ΔErev using the Goldman-Hodgkin-Katz Equation in the form: PX/PCl=(γ·[Cl^−](1)−[Cl^−](2))/[X^−](2) were [Cl^−](1), [Cl^−](2) and [X^−](2) are the external Cl^− and X^− concentration before and after solution exchange. […]

Structure (SMILES)	CaCC activation by A23187 then high calcium solution [1]	effect on decay of the residual CaCC current ([2]; 30 μM NFA)	effect on IP3-induced CaCC current amplitude ([2]; 30 μM NFA, 1 min perfusion, ND96)	reversibility after removal of NFA ([2]; after 5 min ND96 wash)	effect on amplitude of a CaCC current of long duration [3]
CNc1ccc2oc(C[C@H]3O[C@@]4(CC[C@H]3C)O[C@H]([C@H](C)C(=O)c3ccc[nH]3)[C@H](C)C[C@H]4C)nc2c1C(=O)O [A23187]	resulted in CaCC activation	–	–	–	–
O=C(O)c1cccnc1Nc1cccc(C(F)(F)F)c1 [NFA, niflumic acid]	–	slowed the decay of the residual current	reduced the IP3-induced CaCC current	restored both the amplitude and the kinetics of the CaCC current	barely reduced in amplitude
